Data: US20090202497A1, “USE OF GLP-1, GLP-1 DERIVATIVES OR GLP-1 FRAGMENTS FOR SKIN REGENERATION, STIMULATION OF HAIR GROWTH, OR TREATMENT OF DIABETES” (The General Hospital Corporation, priority 2005, published 2009)

Tests used:
[1] = system: shaved New Zealand white rabbits; test: Hair growth after intradermal peptide injection into the backs of shaved rabbits; format: in vivo, rabbit; settings: for hair growth at the sites of injection: 100 μg intradermally in Freund's adjuvant, observed approximately 3-4 weeks after last injection
Method: 0.1 mg (100 μg) of the following peptides were injected intradermally into the backs of the shaved New Zealand white rabbits: synthetic mammalian GLP-1 (1-37), synthetic GLP-1 peptide fragment containing amino acid sequence 16-30 of GLP-1 (1-37) (amino acid numbering starts from histidine 1 of mammalian GLP-1 (1-37), synthetic rat GLP-2 peptide fragment containing amino acid sequence 9-24 of rat GLP-2 (amino acid numbering starts at histidine 1 of the rat GLP-2 sequence), rat IP-2 and synthetic mammalian glucagon. Sequences for rat GLP-2, rat IP-2 and mammalian glucagon are well known in the art, and are provided, for example, in U.S. Pat. No. 6,849,708, which is hereby wholly incorporated by reference (see, e.g., FIG. 1 of U.S. Pat. No. 6,849,708). The total amount of peptide was administered in 10-20 intradermal injections as an emulsification in Freund's adjuvant. Each peptide was tested in four rabbits, except for GLP-1 (1-37) that was injected into 5 rabbits. This amount of peptide was administered at 3 time intervals (100 μg at each time interval), one week apart. […] This effect was not observed in any of the rabbits that were immunized with any other of the above described peptides. […] The inventors observed enhanced hair growth upon intradermal injection of only GLP-1 (1-37) into rabbits.

P42/44 MAPK (ERK1/2) = test: Western immunoblot of ERK1/2 phosphorylation in primary skin cell cultures; format: cell-based, mouse; settings: 10 nM GLP-1
Method: Cultures of C57B6/L mouse skin-derived cells were grown in 100 mm dishes to 80% confluence. Cultures were washed once with PBS and incubated with KRB buffer (115 mM NaCl, 5 mM KCl, 10 mM NaHCO3, 2.5 mM MgCl2, 2.5 mM CaCl2, 20 mM HEPES, pH 7.4) containing 0.5% bovine serum albumin (BSA) and 1 mM glucose at 37° C. for 1 hour. Cultures were then incubated with 10 nM GLP1 in the setting of no (0 mM), low (2.8 mM) or high (16.7 mM) glucose. Proteins were extracted with lysis buffer (50 mM Hepes pH 7.6, 160 mM NaCl, 20 mM sodium pyrophosphate, 20 mM glycerophosphate, 10 mM NaF, 2 mM sodium vanadate, […], and protease inhibitor cocktail). Ten (10) μg of protein per lane was electrophoresed in 4-12% Bis-Tris gels (Invitrogen Corp.) and transferred onto nitrocellulose membranes (Nitrobind, Osmotics, Inc., Minnetonka, Minn.) at 4° C. overnight. Membranes were blocked with 3% BSA in PBS with 0.2% Tween-80 for 1 hour at RT, incubated with mouse monoclonal anti-phospho-P42 MAPK antibody (1:2000 dilution) at 4° C. overnight, washed, and incubated with horseradish peroxidase-conjugated secondary antibody at RT for 1 hour. Immunostained proteins were detected using a the ECL chemiluminescence detection kit (Amersham Biosciences, Ltd., Buckinghamshire, England). […]

[2] = system: cultured skin-derived cells; test: cAMP luciferase reporter plasmid transfected into cultured skin-derived cells; format: cell-based, mouse; settings: data not shown
mouse skin-derived cells = test: Differentiation of cultured skin-derived cells into insulin C-peptide producing cells (immunostaining); format: cell-based; settings: differentiation media with GLP-1 (10 nM) for 30 days
Method: For in-vitro differentiation, after passaging for one month, mouse skin-derived cells were freshly plated and overlaid with differentiation medium composed of RPMI1640 containing 1% HEPES, 1% penicillin/streptomycin/fungizone, 1% pyruvate, 2% B-27 supplement, 2% FBS, […] MIN6 cells, provided by J. Miyazaki, were cultured as described (Miyazaki, J. et al., Endocrinology 127:126-32 (1990)).
For immunochemistry, 7 μm frozen sections were prepared from newborn C57BL/6 mouse skin, and skin-derived tissue culture cells were grown on coverslips. Tissues/coverslips were fixed with 4% paraformaldehyde at RT for 15 min. They were then rinsed with PBS containing 0.2% Triton X-100 and blocked with 3% normal donkey serum for 1 hour at RT. Tissues/coverslips were incubated with primary antibody at a 1:500 dilution at RT for 1 hour, rinsed with PBS containing 0.2% Triton X-100, and incubated with secondary (donkey) Cy2- or Cy3-conjugated antisera at RT for 1 hour. They were then washed with PBS and mounted with fluorescent mounting medium. […]
Mouse skin was minced and strained, and the resulting cells were used to establish primary cultures of mouse skin-derived cells. […] Immunoreactivity was detected with a Cy-3-conjugated secondary antibody.

[3] = system: cultured skin-derived cells; test: fura-2 loading and perforated patch clamp monitoring of membrane potential and current; format: cell-based, mouse; settings: perforated patch clamp; data not shown
From the text: The cells were next loaded with the Ca2+ indicator fura-2, and changes in membrane potential and current were monitored using the perforated patch clamp technique.

[4] = system: cultured skin-derived cells; test: cAMP levels in cell extracts after incubation with GLP-1; format: cell-based, mouse; settings: incubation with GLP-1 for 5-30 min; data not shown
Method: To determine whether GLP-1 receptors are actively coupled to signal transduction pathways in skin-derived cells, GLP-1 was added to the cells and examined for the activation of cell signaling. Three signaling pathways were investigated: Cyclic AMP, calcium influx, and mitogen activated protein kinase phosphorylation (MAPK).
Since GLP-1Rs are classically recognized to couple to Gs and adenylyl cyclase to generate cAMP cell extracts were assayed for changes in levels of cAMP after their incubation with GLP-1 for 5-30 min.

GLP-1 peptide fragment containing amino acid sequence 16-30 of GLP-1 (1-37): synthetic GLP-1 peptide fragment containing amino acid sequence 16-30 of GLP-1 (1-37) (VSSYLEGQAAKEFIA; Glucagon-like peptide 1; UniProt P01275 107-121, looked up, fragment)
hair growth at the sites of injection ([1]; 3 times one week apart): not observed

glucagon [mammalian glucagon, reference compound]
hair growth at the sites of injection ([1]; 3 times one week apart): not observed

glucagon-like peptide-1 [GLP-1 (1-37)]
phosphorylation of ERK1/2 (time course) (P42/44 MAPK (ERK1/2); 0, 5, 15 or 30 minutes, 0, 2.8 or 16.7 mM glucose): prompt phosphorylation of ERK1/2 after 5 minutes followed by defervescence of phosphorylation at 15 and rephosphorylation at 30 min
glucose dependence of ERK1/2 phosphorylation (P42/44 MAPK (ERK1/2); no, 2.8 mM or 16.7 mM glucose): glucose-dependent
activation of cAMP luciferase reporter [2]: failed to activate
cytoplasmic staining of insulin C-peptide (mouse skin-derived cells): Many of the cells showed cytoplasmic staining of C-peptide
membrane current in response to peptide [3]: No membrane current was detected
changes in levels of cAMP [4]: No changes in cAMP levels were observed
hair growth at the sites of injection ([1]; 3 times one week apart): luxurious hair growth was observed only at the sites of injection
rabbits showing hair growth at the sites of injection ([1]; 100 μg intradermally, 3 times one week apart, approximately 3-4 weeks after last injection): 4 out of 5
hair growth in repeat experiments ([1]; repeat experiments at different seasons of the year): variable results

rat GLP-2 peptide fragment containing amino acid sequence 9-24 of rat GLP-2: synthetic rat GLP-2 peptide fragment, residues 9-24, numbering from histidine 1 of rat GLP-2 (EMNTILDNLATRDFIN; Glucagon-like peptide 2; UniProt P06883 154-169, looked up, fragment) [reference compound]
hair growth at the sites of injection ([1]; 3 times one week apart): not observed
